From paper PMC7254505 (ACS Omega, 2020)

How the values were obtained:
ALK2 (R206H) = molecular target: T1, ALK2 (R206H) (Homo sapiens, UniProt Q04771, R206H); assay: In vitro enzyme assay; assay type: biochemical
T1 sequence (Q04771 21-509 R206H): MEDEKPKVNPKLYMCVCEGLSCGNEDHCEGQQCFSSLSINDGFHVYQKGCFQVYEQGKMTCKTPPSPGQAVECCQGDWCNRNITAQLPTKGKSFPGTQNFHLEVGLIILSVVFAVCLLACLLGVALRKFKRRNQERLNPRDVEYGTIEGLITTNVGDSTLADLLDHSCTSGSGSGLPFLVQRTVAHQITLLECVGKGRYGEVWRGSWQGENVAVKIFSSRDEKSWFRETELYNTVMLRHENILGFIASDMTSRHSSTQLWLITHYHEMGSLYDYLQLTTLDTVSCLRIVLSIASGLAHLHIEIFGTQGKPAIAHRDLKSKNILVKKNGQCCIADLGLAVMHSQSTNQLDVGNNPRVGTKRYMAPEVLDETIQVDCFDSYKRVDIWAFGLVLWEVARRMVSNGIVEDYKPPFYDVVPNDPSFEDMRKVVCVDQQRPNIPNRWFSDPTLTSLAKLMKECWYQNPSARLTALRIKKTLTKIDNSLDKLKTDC

Plasma protein binding = assay type: in vitro ADME
[1] = cited from earlier work
CYP2C9 = CYP2C9 (Homo sapiens, UniProt P11712); assay: Cytochrome P450 inhibition, CYP2C9; assay type: in vitro ADME
CYP3A4 = CYP3A4 (Homo sapiens, UniProt P08684); assay: Cytochrome P450 inhibition, CYP3A4; assay type: in vitro ADME
Aqueous solubility = assay type: physicochemical
CYP2C19 = CYP2C19 (Homo sapiens, UniProt P33261); assay: Cytochrome P450 inhibition, CYP2C19; assay type: in vitro ADME
HepG2 cells = assay: In vitro toxicity, HepG2 cell viability; assay type: cell-based
CYP1A2 = molecular target: T2, CYP1A2 (Homo sapiens, UniProt P05177); assay: Cytochrome P450 inhibition, CYP1A2; assay type: in vitro ADME
T2 sequence (P05177 1-516): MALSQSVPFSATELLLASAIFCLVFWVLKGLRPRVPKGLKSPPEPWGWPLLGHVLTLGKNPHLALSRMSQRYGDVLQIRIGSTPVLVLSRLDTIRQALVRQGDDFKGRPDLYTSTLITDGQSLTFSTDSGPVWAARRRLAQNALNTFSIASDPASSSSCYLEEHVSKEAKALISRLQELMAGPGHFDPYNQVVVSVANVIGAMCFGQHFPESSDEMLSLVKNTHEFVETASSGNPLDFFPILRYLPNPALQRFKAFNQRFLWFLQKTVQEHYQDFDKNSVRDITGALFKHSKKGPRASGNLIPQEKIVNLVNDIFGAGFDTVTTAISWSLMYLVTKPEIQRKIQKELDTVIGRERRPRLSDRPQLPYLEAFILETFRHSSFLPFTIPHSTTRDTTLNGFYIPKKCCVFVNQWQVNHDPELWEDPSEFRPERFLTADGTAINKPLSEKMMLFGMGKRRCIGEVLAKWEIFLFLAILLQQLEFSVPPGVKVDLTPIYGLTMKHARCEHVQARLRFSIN

[2] = cited from earlier work; remark: listed apart in the source
CYP2D6 = CYP2D6 (Homo sapiens, UniProt P10635); assay: Cytochrome P450 inhibition, CYP2D6; assay type: in vitro ADME
Partition coefficient = assay type: physicochemical
ALK2 over ALK5 = conditions: cited from earlier work

CYP2C19, sequence (P33261 whole entry): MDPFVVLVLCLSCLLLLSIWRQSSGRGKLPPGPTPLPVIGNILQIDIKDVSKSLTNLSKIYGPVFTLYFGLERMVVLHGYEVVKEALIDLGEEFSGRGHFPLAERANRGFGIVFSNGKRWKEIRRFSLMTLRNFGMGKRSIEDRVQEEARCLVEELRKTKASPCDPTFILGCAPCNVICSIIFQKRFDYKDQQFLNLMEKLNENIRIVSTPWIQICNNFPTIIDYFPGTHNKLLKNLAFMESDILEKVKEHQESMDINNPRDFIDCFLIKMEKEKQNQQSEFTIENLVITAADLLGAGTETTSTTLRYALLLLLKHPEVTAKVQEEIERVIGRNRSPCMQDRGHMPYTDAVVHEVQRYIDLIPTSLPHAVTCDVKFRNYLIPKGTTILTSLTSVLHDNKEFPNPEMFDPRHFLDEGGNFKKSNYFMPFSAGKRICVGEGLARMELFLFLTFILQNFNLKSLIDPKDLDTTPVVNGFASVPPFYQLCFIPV
CYP3A4, sequence (P08684 whole entry): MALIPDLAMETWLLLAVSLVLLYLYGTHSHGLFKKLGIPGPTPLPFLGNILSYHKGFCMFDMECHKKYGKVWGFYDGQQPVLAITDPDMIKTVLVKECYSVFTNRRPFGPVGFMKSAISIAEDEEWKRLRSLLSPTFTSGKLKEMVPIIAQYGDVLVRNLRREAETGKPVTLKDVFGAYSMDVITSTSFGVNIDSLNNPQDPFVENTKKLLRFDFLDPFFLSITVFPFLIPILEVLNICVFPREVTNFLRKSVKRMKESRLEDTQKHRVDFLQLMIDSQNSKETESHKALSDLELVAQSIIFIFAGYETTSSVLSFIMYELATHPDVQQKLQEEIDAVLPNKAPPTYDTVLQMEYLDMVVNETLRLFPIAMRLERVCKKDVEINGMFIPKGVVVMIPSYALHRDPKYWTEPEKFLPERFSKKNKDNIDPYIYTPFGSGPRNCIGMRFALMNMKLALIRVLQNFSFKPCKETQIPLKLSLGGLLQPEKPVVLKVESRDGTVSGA
CYP2C9, sequence (P11712 whole entry): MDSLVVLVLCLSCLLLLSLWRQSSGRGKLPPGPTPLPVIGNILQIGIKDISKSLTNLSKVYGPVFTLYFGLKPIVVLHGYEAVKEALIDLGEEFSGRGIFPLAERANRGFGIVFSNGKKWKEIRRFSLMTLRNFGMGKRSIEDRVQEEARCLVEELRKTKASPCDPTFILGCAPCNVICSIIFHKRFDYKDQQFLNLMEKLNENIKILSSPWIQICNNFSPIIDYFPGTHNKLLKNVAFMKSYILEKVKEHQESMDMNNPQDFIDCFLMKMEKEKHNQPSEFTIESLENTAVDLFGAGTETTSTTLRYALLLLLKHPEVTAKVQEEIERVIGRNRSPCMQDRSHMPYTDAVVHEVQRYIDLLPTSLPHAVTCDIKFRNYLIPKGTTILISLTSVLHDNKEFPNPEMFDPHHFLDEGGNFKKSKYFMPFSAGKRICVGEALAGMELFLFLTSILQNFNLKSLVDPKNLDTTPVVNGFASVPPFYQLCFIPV
CYP2D6, sequence (P10635 whole entry): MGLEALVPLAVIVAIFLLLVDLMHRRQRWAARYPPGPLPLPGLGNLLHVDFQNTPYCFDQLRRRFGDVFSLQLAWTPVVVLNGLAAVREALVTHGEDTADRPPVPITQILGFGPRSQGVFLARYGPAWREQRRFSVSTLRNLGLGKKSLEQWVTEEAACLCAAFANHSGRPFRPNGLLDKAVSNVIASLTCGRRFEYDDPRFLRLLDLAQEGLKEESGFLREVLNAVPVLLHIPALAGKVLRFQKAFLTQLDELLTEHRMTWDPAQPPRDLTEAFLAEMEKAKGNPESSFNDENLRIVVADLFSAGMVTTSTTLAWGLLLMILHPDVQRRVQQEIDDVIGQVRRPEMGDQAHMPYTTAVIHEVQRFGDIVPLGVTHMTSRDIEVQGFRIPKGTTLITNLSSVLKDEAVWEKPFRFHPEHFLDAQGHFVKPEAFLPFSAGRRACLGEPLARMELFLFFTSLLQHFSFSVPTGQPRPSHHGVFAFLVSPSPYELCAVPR

c1cncc(-c2n[nH]cc2-c2ccnc(Nc3ccc(N4CCNCC4)cc3)n2)c1 [Compound 1, N-[4-(Piperazin-1-yl)phenyl]-4-(3-pyridin-3-yl-1H-pyrazol-4-yl)pyrimidin-2-amine]
IC50 (ALK2 (R206H)): 0.0479 µM

c1ccc2c(-c3cnn4cc(-c5ccc(N6CCNCC6)cc5)cnc34)ccnc2c1 [LDN-193189]
PPB human (%) at 10 μM (Plasma protein binding): 97.8%
binding to serum proteins (in words) [1]: highly bound
CYP2C9 % inh. at 10 μM (CYP2C9): 30%
CYP3A4 % inh. at 10 μM (CYP3A4): 82%
aqueous solubility at pH 7.4 (Aqueous solubility): 10.6 μg/mL
CYP2C19 % inh. at 10 μM (CYP2C19): 34%
in vitro toxicity HepG2 cell (% viability at 30 μM) (HepG2 cells): 77%
CYP1A2 % inh. at 10 μM (CYP1A2): 28%
solubility in aqueous solutions (in words) [2]: poorly soluble
CYP2D6 % inh. at 10 μM (CYP2D6): 30%
partition coefficient (log D, n-octanol/PBS, pH 7.4) (Partition coefficient): 2.26

c1cc(-c2cnn3cc(-c4ccc(N5CCNCC5)cc4)cnc23)c2cccnc2c1 [LDN-212854]
binding to serum proteins (in words) [1]: highly bound
solubility in aqueous solutions (in words) [2]: poorly soluble

COc1cc(-c2cc(-c3ccc(N4CCNCC4)cc3)cnc2C)cc(OC)c1OC [LDN-214117]
selectivity for ALK2 over ALK5 (ALK2 over ALK5): more than 100 fold
